Experiment [1] addresses T1, panel of 442 kinases (Homo sapiens, UniProt Q9P289).
T1 construct: purchased KINOMEscan
Type of experiment: binding. As to conditions: Compound Concentration 10 µM. An excerpt: (§1) We assessed the selectivity of members of this scaffold using the KINOMEscan methodology across a near comprehensive panel of 442 kinases [[18,27]].

Experiment [2] has as its target T2, panel of 442 kinases (Homo sapiens, UniProt P21860).
T2 construct: purchased KINOMEscan
Type of experiment: binding. Conditions: Compound Concentration 10 µM.
Excerpt: as §1

T1 sequence (Q9P289 whole entry): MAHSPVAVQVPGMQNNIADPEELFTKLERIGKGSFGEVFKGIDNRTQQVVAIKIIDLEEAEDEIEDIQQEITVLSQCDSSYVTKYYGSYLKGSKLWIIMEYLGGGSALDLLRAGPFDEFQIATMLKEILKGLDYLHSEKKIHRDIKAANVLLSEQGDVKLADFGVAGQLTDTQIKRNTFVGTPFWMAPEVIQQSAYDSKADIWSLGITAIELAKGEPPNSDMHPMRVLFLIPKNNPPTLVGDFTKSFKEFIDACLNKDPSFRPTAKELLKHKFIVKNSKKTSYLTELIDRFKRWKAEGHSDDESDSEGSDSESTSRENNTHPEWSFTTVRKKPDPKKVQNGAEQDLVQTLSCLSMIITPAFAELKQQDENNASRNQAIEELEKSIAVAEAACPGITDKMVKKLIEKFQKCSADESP
T2 sequence (P21860 20-1342): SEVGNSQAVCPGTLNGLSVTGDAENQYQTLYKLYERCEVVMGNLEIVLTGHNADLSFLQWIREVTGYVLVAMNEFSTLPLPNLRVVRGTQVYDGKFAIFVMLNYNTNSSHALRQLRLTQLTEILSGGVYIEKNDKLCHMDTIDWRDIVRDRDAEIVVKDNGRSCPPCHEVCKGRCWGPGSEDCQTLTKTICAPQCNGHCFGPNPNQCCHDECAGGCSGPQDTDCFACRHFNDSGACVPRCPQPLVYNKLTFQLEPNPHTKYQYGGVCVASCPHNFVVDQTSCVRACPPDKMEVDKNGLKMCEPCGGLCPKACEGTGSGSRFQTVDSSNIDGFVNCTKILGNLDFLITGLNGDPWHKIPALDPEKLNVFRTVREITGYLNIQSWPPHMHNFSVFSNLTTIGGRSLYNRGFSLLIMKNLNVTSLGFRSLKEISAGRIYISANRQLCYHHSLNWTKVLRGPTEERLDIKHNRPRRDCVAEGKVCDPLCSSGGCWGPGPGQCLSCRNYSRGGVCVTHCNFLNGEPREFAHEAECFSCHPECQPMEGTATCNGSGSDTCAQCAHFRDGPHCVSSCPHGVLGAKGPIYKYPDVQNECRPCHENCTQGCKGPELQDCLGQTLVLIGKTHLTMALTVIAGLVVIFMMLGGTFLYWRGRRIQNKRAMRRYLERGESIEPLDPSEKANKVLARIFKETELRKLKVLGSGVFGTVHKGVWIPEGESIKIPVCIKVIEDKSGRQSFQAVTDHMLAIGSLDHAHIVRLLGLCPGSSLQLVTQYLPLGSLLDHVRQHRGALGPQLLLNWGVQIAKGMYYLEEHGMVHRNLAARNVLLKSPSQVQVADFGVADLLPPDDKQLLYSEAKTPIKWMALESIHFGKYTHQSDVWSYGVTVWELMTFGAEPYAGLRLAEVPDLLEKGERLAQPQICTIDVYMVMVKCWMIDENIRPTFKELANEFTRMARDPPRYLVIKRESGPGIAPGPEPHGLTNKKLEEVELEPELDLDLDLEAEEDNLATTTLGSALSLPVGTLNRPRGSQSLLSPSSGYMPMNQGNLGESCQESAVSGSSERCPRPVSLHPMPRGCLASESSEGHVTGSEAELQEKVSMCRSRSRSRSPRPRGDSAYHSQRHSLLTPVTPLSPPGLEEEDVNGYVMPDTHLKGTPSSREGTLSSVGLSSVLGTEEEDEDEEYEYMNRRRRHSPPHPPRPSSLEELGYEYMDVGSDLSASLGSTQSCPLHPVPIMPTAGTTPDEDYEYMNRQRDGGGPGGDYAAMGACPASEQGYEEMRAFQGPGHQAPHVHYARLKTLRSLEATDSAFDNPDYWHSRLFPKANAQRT

Take `CCOc1cc(C(=O)N2CCC(N3CCN(C)CC3)CC2)ccc1Nc1ncc2c(n1)N(C1CCCC1)c1ccccc1C(=O)N2C` [Compound 26]: in experiment [1], the “KINOMEscan: MST4” value was 100. In addition, the “KINOMEscan: ERBB3” value in experiment [2] was 100.
Consider `COc1cc(C(=O)N2CCC(N3CCN(C)CC3)CC2)ccc1Nc1ncc2c(n1)N(C)c1ccccc1C(=O)N2C` [15 (LRRK2-IN-1)], for which the “KINOMEscan: MST4” value in experiment [1] was determined as 95. Moreover, the “KINOMEscan: ERBB3” value in experiment [2] was 100.
Turning to `COc1cc(C(=O)N2CCC(N3CCN(C)CC3)CC2)ccc1Nc1ncc2c(n1)N(C1CCCC1)c1ccccc1C(=O)N2C` [Compound 25, 11-cyclopentyl-2-((2-methoxy-4-(4-(4-methylpiperazin-1-yl)piperidine-1-carbonyl)phenyl)amino)-5-methyl-5H-benzo[e]pyrimido[5,4-b][1,4]diazepin-6(11H)-one], in experiment [1], the “KINOMEscan: MST4” value was found to be 100. Besides, in experiment [2], the “KINOMEscan: ERBB3” value turned out to be 100.
